For assay [1], the system named is 3T3-L1 preadipocytes. Kind of assay: 3T3-L1 adipogenesis assay (lipid accumulation, adipogenic gene expression). Format: cell-based. Particulars: 0.02-20 μM, 5 days after MDI induction. How it is done:
3T3-L1 cells (ATCC) were maintained in high-glucose DMEM supplemented with 10% fetal bovine serum, 2 mM L-glutamine, 50 IU/mL penicillin, and 50 μg/mL streptomycin. A total of 2 × 10^4 cells per well were seeded in 12-well plates. After 48 hr, cells were exposed to the adipogenic cocktail MDI (500 μM isobutylmethylxanthine, 0.25 nM dexamethasone and 5 μg/mL insulin), 8 μg/mL biotin and 8 μg/mL pantothenate for 2 days. Induction media was removed and cells were exposed to test chemicals during 5 days, replacing the media every 2 days. Rosiglitazone (ROSI) and tributyltin (TBT) were used as positive controls at 100 nM and 50 nM final concentrations, respectively. All ToxCast™ chemicals were tested at 0.02, 0.2, 2, and 20 μM, and DMSO concentration was maintained at 0.1% across all treatments. If the chemical was toxic at 20 μM, we repeated the experiment at 10 μM.
Cells were either fixed in 3.7% formaldehyde in phosphate-buffered saline (PBS) for 30 min at room temperature (RT) for lipid quantitation, or homogenized in TriPure (Roche, Mannheim, Germany) for gene expression analysis. For lipid quantitation, fixed cells were washed twice with PBS and maintained in PBS overnight at 4°C to release residual phenol red. Background of cells were measured prior to staining. Cells were stained with 1 μg/mL Nile red (CAS No. 7385-67-3) (to detect lipid accumulation) and 1 μg/mL Hoechst 33342 (ThermoFisher Scientific) (to detect nuclei as a surrogate for cell number) in PBS for 15 min in the dark at RT and washed twice with PBS. […] Background values of Hoechst and Nile red were subtracted from the RFUs after staining and the ratio RFUNile Red:RFUHoechst was calculated. Data are represented as mean ± SEM. Total RNA was isolated using TriPure (Roche) as recommended by the manufacturer. Reverse transcription and quantitative real-time RT-PCR (QPCR) were performed using Transcriptor RT and SYBR® Green Master Mix (Roche). cDNA was quantitated in a LightCycler® 480 System (Roche Diagnostics, Basel, Switzerland) using primer sets listed in Table S4. Each primer set amplified a single band as determined by gel electrophoresis and melting curve analysis. QPCR data were analyzed using the 2^ΔΔCt method ([Livak and Schmittgen 2001]) relative to ribosomal protein 36b4, normalizing to 0.1% DMSO vehicle. Error bars represent the SEM from four to six biological replicates calculated using standard propagation of error ([Bevington and Robinson 2003]).

The target of assay [2] is T1, GAL4-mPPARγ (Mus musculus, UniProt P37238).
T1 construct: expressed in transfected cells; host or cells: COS7
T1 sequence (P37238 with tags, fused parts or gaps limits assumed): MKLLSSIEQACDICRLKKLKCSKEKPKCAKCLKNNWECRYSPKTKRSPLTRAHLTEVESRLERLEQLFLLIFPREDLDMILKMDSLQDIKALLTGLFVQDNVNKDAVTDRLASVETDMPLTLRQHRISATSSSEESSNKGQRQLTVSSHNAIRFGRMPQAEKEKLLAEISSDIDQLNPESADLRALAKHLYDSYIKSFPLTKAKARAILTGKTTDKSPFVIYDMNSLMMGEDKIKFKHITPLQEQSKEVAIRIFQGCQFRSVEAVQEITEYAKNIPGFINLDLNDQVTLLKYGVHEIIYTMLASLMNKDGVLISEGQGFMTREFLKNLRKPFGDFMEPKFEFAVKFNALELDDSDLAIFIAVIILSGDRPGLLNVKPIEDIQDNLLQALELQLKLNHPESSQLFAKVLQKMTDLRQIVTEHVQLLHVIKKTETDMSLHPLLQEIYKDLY
Kind of assay: GAL4-mPPARγ activation, transient transfection luciferase reporter in COS7 cells. The assay is classed as cell-based. On the procedure:
pCMX-Gal4, pCMX-Gal4-mPPARγ, and pCMX-Gal4-hRXRα were previously described ([Grün et al. 2006]). Transient transfections were performed in COS7 cells as described ([Chamorro-García et al. 2012]). Briefly, COS7 cells were seeded at 15,000 cells per well in 96-well tissue culture plates in 10% calf bovine serum. The following day, cells were transfected in Opti-MEM at ~ 90% confluency. One microgram of CMX-GAL4 effector plasmid was co-transfected with 5 μg tk-(MH100)4-luciferase reporter and 5 μg of CMX-β-galactosidase transfection control plasmids in Opti-MEM® using Lipofectamine® 2000 reagent (Invitrogen™ Life Technologies, Carlsbad, CA, USA), following the manufacturer’s recommended protocol. All chemicals were solvated in dimethyl sulfoxide (DMSO). After overnight incubation, the medium was replaced with Dulbecco’s Modified Eagle Medium (DMEM; HyClone, Logan, UT, USA), 10% resin charcoal stripped fetal bovine serum (FBS) plus ligands at concentrations indicated in the figure legends for an additional 24 hr. DMSO concentration was maintained at 0.05% across all chemical treatments. Cells were lysed and assayed for luciferase and β-galactosidase activity as previously described ([Forman et al. 1995]). All transfections were performed in triplicate and reproduced in multiple experiments. Data are reported as fold induction or reduction over vehicle ([…]) controls ± SEM (standard error of the mean) using standard propagation of error ([Bevington and Robinson 2003]). […] The EC50, EC10, IC50, and IC10 values from NCGC and ToxCast™ are reported from gain AC50 and AC10 values in the ToxCast™ 2014 release ([Filer et al. 2014]).
Figure 1 ToxCast™ Chemical Activity on PPARγ. The ability of a graded dose series of ToxCast™ chemicals to (A) activate or (B) antagonize GAL4-mPPARγ was tested in transiently transfected COS7 cells. (A, B) Data points are averages of triplicate transfections (three biological replicates). […] Data are depicted as (A) fold induction or (B) reduction over vehicle (0.05% DMSO) controls ± SEM. (A) ToxCast™ chemicals were tested in 3-fold serial dilutions from 100 μM through 0.137 μM, with the final data point being 0.05% DMSO. Rosiglitazone serves as a positive control activator. (B) ToxCast™ chemicals were tested in 3-fold serial dilutions from 100 μM, in competition with 50 nM rosiglitazone (Rosi). […] (C) EC50, EC10, IC50, and IC10 values calculated from A and B are reported and compared to commercial assays (see Figure S1). Note: ATG, Attagene GAL-PPARγ activation assay; NCGC, GeneBLAzer® agonist (EC values) or antagonist (IC values) assays. Triphenyltin was previously published ([Kanayama et al. 2005]).
Figure 4 ToxPi Chemical Activity on PPARγ and RXRα. The ability of a graded dose series of ToxPi chemicals to activate (A) GAL4-mPPARγ or (B) GAL4-hRXRα was tested in transiently transfected COS7 cells. (A, B) Data points are averages of triplicate transfections (three biological replicates). […] ToxPi chemicals were tested in 3-fold serial dilutions from 100 μM through 0.137 μM, with the final data point being 0.05% DMSO. Data are depicted as fold induction over vehicle (0.05% DMSO) controls ± SEM. (A) Rosiglitazone serves as a positive control activator for GAL4-mPPARγ. (B) LG100268 (2-[1-(3,5,5,8,8-Pentamethyl-5,6,7,8-tetrahydro-2-naphthyl)cyclopropyl]pyridine-5-carboxylic acid) serves as a positive control activator for GAL4-hRXRα. (C) EC50 and EC10 values calculated from A and B are reported and compared to other assays (see Figure S1). ATG, Attagene GAL-PPARγ or GAL-RXRα activation assay; NCGC, GeneBLAzer® GAL-PPARγ or GAL-RXRα activation assays. Triphenyltin was previously published ([Kanayama et al. 2005]).

The test system of assay [3] is PPARγ. Set-up: method as in Filer et al. 2014. To be noted: PPARγ; NA = not active; ref Filer et al. 2014; read-out: NCGC Antag. AC50, 2014 Release; cited from earlier work.
Assay [4] relates to PPARγ. To be noted: cited from earlier work.
Assay [5] has as its system Human PPARγ. To be noted: cited from earlier work.
For assay [6], the system named is PPARγ. Particulars: ref Filer et al. 2014, cited from earlier work.
Setting [7] is: Cos-7 transient transfection, PPARγ or RXRα activation assays (Table 2).
[8] abbreviates: PPARγ, NA = not active, ref Filer et al. 2014, read-out: ATG Agonist AC50, 2014 Release.
[9] abbreviates: PPARγ, NA = not active, ref Knudsen et al. 2011, read-out: ATG Agonist AC50, 2011 Release.
Where [10] appears, read: PPARγ direct binding, NA = not active, ref Filer et al. 2014, read-out: NVS Agonist AC50, 2014 Release.
[11] abbreviates: PPARγ, NA = not active, read-out: NCGC Agonist AC50, 2014 Release.
Setting [12] is: ToxCast 2014 release, ref Filer et al. 2014, read-out: Attagene AC50 (panel A, w/o Z-Score Correction ranking).
Where [13] appears, read: Cos-7 transient transfection, PPARγ activation or antagonism assays (Table 1, Table S6).

Where “and” joins values, the source holds several entries; their conditions need not be identical. Equal entries are not always repeated. Where two headings read alike, the source gives them in different places.

`C/C(=N\C#N)N(C)Cc1ccc(Cl)nc1` [Acetamiprid]: the “Adipogenesis 3T3-L1 (result in words)” value in assay [1] was “Positive”; in assay [1] (listed as acetamiprid) it was “promoted adipogenesis”. For the same compound, the “Activation COS7 (result in words), ToxPi chemicals” value (“Activation COS7 … ToxPi chemicals” below) in assay [2] is listed as “Inactive”.

Regarding `COC(=O)NS(=O)(=O)c1ccc(N)cc1` [Asulam], the “Adipogenesis 3T3-L1 (result in words)” value in assay [1] was “Negative”. The “Activation COS7 … ToxPi chemicals” value in assay [2] (setting [7]) is listed as “Inactive”.

Consider `CCCCOCN(C(=O)CCl)c1c(CC)cccc1CC` [Butachlor], for which the AC50 in assay [3] was 26.4 µM; in assay [4] (setting [8]), 2 µM; in assay [4] (setting [9]), 2.1 µM.

For `COCC(C)N(C(=O)CCl)c1c(C)csc1C` (stereo not shown) [Dimethenamid], the AC50 in assay [3] is 21.4 µM; in assay [4] (setting [8]) it was 4.6 µM; in assay [4] (setting [9]) it was 5.6 µM. Further, the “Activation COS7 (result in words), ToxCast PPARγ list” value (“Activation COS7 … ToxCast PPARγ list” for short) in assay [2] is “Inactive”.

Turning to `COc1ccc(C(=CC(=O)N2CCOCC2)c2ccc(Cl)cc2)cc1OC` [Dimethomorph], the AC50 was 9.6 µM in assay [5] (setting [10]); 32.3 µM in assay [3]; 9.4 µM and 10.1 µM in assay [4] (setting [8]); 11 µM in assay [4] (setting [9]). The “Activation COS7 … ToxCast PPARγ list” value in assay [2] is reported as “Inactive”.

Consider `Cc1ccn2nc(S(=O)(=O)Nc3c(F)cccc3F)nc2n1` [Flumetsulam], for which the “Adipogenesis 3T3-L1 (result in words)” value in assay [1] is on record as “Negative”. In assay [2] (setting [7]), the “Activation COS7 … ToxPi chemicals” value is “Inactive”.

Regarding `COC(=O)N(C(=O)N1CO[C@@]2(C(=O)OC)Cc3cc(Cl)ccc3C2=N1)c1ccc(OC(F)(F)F)cc1` [Indoxacarb], the AC50 in assay [6] (setting [11]) was 44.1 µM; in assay [3], 10.7 µM; in assay [4] (setting [8]) it was 6.1 µM; in assay [4] (setting [9]) it was 8.5 µM. In addition, the “Activation COS7 … ToxCast PPARγ list” value in assay [2] is recorded as “Inactive”.

As to `O=c1ccc(=O)[nH][nH]1` [Maleic hydrazide], the “Adipogenesis 3T3-L1 (result in words)” value in assay [1] was “Negative”. Moreover, the “Activation COS7 … ToxPi chemicals” value in assay [2] (setting [7]) was “Inactive”.

As to `N#CSCSC#N` [Methylene dithiocyanate], the “Adipogenesis 3T3-L1 (result in words)” value in assay [1] is reported as “Negative”. In assay [2] (setting [7]), the “Activation COS7 … ToxPi chemicals” value was “Inactive”.

Regarding `CNC(=O)/C=C(\C)OP(=O)(OC)OC` [Monocrotophos], the AC50 in assay [5] (direct binding, ToxCast 2014 release, ref Filer et al. 2014, read-out: NovaScreen AC50 (panel A)) was 20.8 µM; in assay [6] (ToxCast 2014 release, read-out: Tox21/NCGC AC50 (panel A)), 67.5 µM; in assay [4] (setting [12]), 2.2 µM. For the same compound, the “Adipogenesis 3T3-L1 (result in words)” value in assay [1] was “Negative”. Further, the “Activation COS7 … ToxPi chemicals” value in assay [2] (setting [7]) was “Inactive”.

Turning to `O=C(Nc1ccc([N+](=O)[O-])cc1Cl)c1cc(Cl)ccc1O` [Niclosamide], the AC50 in assay [6] (setting [11]) is 29.9 µM; in assay [3], 35.9 µM; in assay [4] (setting [8]) it was 0.56 µM; in assay [4] (setting [9]), 0.56 µM; in assay [4] (setting [12]), 0.6 µM. In addition, the “Activation COS7 … ToxCast PPARγ list” value in assay [2] (setting [13]) is given as “Inactive”.

Take `O=S(=O)(O)C(F)(F)C(F)(F)C(F)(F)C(F)(F)C(F)(F)C(F)(F)C(F)(F)C(F)(F)F` [PFOS, perfluorooctanesulfonic acid]: the AC50 was 16 µM in assay [5] (direct binding, ToxCast Phase I 2011 release, NA = not active, ref Knudsen et al. 2011, read-out: NVS PPARγ AC50) and 26 µM in assay [4] (ToxCast Phase I 2011 release, NA = not active, ref Knudsen et al. 2011, read-out: ATGT PPARγ AC50). Besides, in assay [1], the “Adipogenesis 3T3-L1 (result in words)” value is “Negative”. In addition, the “Activation COS7 … ToxPi chemicals” value in assay [2] (setting [7]) is recorded as “Inactive”.

With `CCCN(CCOc1c(Cl)cc(Cl)cc1Cl)C(=O)n1ccnc1` [Prochloraz], the results for the AC50 in assay [5] (setting [10]), in assay [3] and in assay [4] (setting [9]) were 27.5 µM, 81.5 µM and 3.5 µM, respectively. The “Activation COS7 … ToxCast PPARγ list” value in assay [2] (setting [13]) is recorded as “Inactive”.

Consider `CC1=NNC(=O)N(/N=C/c2cccnc2)C1` [Pymetrozine], for which the “Adipogenesis 3T3-L1 (result in words)” value in assay [1] is “Positive”; in assay [1] (listed as pymetrozine), “promoted adipogenesis”. Also, in assay [2] (setting [7]), the “Activation COS7 … ToxPi chemicals” value is on record as “Inactive”.

For the compound `COC(=O)N(OC)c1ccccc1COc1ccn(-c2ccc(Cl)cc2)n1` [Pyraclostrobin], the results for the AC50 in assay [3], in assay [4] (setting [8]) and in assay [4] (setting [9]) were 0.7 µM, 0.61 µM and 0.76 µM, respectively. In addition, in assay [2], the “Activation COS7 … ToxCast PPARγ list” value is listed as “Inactive”.

With `CCc1ccc(C(=O)NN(C(=O)c2cc(C)cc(C)c2)C(C)(C)C)cc1` [Tebufenozide], the AC50 in assay [3] was 50.8 µM; in assay [4] (setting [8]), 7.6 µM; in assay [4] (setting [9]), 6.3 µM. In assay [2], the “Activation COS7 … ToxCast PPARγ list” value is given as “Inactive”.

(Values after publication PMC4977052, “On the Utility of ToxCast™ and ToxPi as Methods for Identifying New Obesogens” (Environmental Health Perspectives, 2016).)
